Where two headings read alike, the source gives them in different places.
Legend:
[1] = system: MCF-7; assay: MTT antiproliferative assay, MCF-7; assay type: cell-based, human; conditions: read-out: IC50 MCF-7
[2] = system: HT-29; assay: MTT antiproliferative assay, HT-29; assay type: cell-based, human; conditions: read-out: IC50 HT-29
[3] = system: Mia-Paca-2; assay: MTT antiproliferative assay, Mia-Paca-2; assay type: cell-based, human; conditions: read-out: IC50 Mia-Paca-2
[4] = system: EBC-1; assay: MTT antiproliferative assay, EBC-1; assay type: cell-based, human; conditions: read-out: IC50 EBC-1
[5] = system: AsPC-1; assay: MTT antiproliferative assay, AsPC-1; assay type: cell-based, human; conditions: read-out: IC50 AsPC-1
[6] = system: NIH3T3; assay: MTT assay, NIH3T3 non-cancer cell line; assay type: cell-based; conditions: read-out: IC50 NIH3T3
[7] = biological target: MET (Homo sapiens, UniProt P08581); assay: Radiometric kinase assay; assay type: biochemical; conditions: read-out: Kinase inhibition (%) MET
MET, sequence (P08581 25-1390): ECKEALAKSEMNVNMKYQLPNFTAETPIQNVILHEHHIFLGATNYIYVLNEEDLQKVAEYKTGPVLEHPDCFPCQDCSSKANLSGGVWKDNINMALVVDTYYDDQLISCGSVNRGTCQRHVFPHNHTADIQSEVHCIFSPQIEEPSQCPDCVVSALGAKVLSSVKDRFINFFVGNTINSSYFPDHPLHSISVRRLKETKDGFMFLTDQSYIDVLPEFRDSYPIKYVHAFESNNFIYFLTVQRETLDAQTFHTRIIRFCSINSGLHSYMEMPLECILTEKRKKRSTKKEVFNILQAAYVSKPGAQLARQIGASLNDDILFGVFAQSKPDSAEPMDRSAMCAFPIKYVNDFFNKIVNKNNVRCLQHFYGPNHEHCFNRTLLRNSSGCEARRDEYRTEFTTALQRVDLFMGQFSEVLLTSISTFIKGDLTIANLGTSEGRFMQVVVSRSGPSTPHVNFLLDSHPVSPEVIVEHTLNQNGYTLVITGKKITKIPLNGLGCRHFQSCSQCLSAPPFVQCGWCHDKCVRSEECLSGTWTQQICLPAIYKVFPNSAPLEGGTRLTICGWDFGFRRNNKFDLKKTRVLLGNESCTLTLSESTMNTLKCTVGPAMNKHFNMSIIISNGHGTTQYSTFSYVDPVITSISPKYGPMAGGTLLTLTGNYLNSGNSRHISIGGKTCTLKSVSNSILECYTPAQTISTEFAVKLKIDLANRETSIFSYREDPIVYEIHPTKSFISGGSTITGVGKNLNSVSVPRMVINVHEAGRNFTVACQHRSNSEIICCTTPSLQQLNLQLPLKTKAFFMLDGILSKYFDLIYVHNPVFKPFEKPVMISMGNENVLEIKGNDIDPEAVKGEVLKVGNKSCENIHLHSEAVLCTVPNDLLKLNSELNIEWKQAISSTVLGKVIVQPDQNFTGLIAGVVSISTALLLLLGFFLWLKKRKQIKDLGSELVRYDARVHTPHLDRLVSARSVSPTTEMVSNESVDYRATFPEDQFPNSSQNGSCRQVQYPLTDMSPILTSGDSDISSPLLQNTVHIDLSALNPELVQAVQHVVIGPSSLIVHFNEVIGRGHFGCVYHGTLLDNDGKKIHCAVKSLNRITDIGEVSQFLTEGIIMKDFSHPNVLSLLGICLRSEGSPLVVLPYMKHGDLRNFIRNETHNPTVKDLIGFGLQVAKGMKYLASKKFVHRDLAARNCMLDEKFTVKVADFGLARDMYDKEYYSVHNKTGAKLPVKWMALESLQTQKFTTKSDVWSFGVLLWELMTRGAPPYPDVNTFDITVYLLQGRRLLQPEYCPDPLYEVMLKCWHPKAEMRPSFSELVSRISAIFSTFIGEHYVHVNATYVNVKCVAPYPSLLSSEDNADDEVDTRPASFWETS

[8] = biological target: NTRK1 (TrkA) (Homo sapiens, UniProt P04629); assay: Radiometric kinase assay; assay type: biochemical; conditions: read-out: Kinase inhibition (%) NTRK1 (TrkA)
[9] = biological target: KDR (VEGFR2) (Homo sapiens, UniProt P35968); assay: Radiometric kinase assay; assay type: biochemical; conditions: read-out: Kinase inhibition (%) KDR (VEGFR2)
KDR (VEGFR2), sequence (P35968 20-1356): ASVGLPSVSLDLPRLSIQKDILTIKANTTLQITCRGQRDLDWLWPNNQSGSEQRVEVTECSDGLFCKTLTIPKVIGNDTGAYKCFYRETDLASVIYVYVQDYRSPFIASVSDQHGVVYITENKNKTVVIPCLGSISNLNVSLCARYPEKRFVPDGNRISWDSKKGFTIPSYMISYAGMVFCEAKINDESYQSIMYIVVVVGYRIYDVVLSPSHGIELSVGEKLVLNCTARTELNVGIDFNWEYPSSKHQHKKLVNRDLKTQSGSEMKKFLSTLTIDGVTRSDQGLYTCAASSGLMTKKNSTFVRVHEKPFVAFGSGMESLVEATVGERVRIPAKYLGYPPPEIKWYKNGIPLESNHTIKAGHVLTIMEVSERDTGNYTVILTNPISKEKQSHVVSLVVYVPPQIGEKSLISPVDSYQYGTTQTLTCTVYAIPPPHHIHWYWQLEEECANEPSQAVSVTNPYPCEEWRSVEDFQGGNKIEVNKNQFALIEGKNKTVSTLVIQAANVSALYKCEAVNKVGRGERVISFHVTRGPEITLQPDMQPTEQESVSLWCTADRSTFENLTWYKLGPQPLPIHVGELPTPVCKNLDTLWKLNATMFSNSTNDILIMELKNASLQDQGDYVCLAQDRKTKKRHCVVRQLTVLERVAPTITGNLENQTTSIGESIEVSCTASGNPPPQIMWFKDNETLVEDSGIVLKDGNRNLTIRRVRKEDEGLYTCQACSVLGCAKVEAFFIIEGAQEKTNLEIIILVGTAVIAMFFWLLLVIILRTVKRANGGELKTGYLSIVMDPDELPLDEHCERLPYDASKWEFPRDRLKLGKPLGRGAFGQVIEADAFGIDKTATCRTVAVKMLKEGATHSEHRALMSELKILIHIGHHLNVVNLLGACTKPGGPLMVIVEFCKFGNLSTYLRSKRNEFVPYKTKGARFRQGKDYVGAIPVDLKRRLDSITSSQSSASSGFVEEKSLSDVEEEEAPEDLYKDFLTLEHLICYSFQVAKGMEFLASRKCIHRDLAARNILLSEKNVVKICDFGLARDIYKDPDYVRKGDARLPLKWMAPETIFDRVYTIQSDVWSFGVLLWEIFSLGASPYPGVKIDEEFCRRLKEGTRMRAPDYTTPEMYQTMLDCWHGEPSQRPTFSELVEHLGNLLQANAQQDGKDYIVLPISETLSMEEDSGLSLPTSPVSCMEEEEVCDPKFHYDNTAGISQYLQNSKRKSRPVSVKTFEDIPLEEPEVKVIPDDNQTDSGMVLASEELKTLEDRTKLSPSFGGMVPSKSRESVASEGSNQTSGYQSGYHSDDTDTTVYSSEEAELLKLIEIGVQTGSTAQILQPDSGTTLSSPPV

[10] = biological target: FLT3 (Homo sapiens, UniProt P36888); assay: Radiometric kinase assay; assay type: biochemical; conditions: read-out: Kinase inhibition (%) FLT3
[11] = biological target: CDK2/cyclin A (Homo sapiens, UniProt P24941); assay: Radiometric kinase assay; assay type: biochemical; conditions: for inhibition at 10 µM: read-out: Kinase inhibition (%) CDK2/cyclin A
[12] = biological target: FLT4 (VEGFR3) (Homo sapiens, UniProt P35916); assay: Radiometric kinase assay; assay type: biochemical; conditions: for inhibition at 10 µM: read-out: Kinase inhibition (%) FLT4 (VEGFR3)
FLT4 (VEGFR3), sequence (P35916 25-1363): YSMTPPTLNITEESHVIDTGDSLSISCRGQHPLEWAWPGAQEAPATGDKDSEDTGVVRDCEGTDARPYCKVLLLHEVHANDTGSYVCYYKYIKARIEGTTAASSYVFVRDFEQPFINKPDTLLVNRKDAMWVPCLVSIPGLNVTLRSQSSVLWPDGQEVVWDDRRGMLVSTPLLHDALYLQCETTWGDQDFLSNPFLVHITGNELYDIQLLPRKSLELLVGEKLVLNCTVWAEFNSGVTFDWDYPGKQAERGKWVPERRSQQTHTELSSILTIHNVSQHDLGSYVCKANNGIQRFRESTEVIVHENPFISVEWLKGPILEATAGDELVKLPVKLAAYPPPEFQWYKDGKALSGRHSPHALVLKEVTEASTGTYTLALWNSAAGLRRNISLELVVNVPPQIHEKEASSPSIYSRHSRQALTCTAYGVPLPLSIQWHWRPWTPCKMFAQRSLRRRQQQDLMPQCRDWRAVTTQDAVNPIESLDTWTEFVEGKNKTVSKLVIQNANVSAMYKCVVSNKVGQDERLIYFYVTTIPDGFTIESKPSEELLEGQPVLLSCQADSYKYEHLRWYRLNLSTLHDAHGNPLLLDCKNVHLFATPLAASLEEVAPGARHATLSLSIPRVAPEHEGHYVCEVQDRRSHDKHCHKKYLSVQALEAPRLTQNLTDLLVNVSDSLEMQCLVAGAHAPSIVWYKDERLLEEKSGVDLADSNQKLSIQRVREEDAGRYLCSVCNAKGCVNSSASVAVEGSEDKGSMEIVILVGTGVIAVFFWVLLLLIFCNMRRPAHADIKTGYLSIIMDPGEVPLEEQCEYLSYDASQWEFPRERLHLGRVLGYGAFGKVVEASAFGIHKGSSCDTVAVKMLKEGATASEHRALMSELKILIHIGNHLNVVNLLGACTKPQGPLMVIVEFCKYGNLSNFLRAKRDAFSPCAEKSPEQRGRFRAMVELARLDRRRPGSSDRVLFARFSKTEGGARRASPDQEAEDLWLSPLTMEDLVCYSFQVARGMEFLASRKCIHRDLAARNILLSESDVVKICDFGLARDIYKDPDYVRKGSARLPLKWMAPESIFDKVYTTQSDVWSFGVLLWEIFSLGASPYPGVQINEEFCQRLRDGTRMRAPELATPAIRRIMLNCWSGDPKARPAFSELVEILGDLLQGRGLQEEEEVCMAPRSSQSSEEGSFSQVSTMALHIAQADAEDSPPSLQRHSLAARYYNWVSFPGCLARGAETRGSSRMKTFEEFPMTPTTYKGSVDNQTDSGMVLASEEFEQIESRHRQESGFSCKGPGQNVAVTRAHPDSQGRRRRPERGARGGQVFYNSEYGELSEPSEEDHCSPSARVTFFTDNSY

[13] = biological target: PDGFRA (PDGFRα) (Homo sapiens, UniProt P16234); assay: Radiometric kinase assay; assay type: biochemical; conditions: for inhibition at 10 µM: read-out: Kinase inhibition (%) PDGFRA (PDGFRα)
PDGFRA (PDGFRα), sequence (P16234 24-1089): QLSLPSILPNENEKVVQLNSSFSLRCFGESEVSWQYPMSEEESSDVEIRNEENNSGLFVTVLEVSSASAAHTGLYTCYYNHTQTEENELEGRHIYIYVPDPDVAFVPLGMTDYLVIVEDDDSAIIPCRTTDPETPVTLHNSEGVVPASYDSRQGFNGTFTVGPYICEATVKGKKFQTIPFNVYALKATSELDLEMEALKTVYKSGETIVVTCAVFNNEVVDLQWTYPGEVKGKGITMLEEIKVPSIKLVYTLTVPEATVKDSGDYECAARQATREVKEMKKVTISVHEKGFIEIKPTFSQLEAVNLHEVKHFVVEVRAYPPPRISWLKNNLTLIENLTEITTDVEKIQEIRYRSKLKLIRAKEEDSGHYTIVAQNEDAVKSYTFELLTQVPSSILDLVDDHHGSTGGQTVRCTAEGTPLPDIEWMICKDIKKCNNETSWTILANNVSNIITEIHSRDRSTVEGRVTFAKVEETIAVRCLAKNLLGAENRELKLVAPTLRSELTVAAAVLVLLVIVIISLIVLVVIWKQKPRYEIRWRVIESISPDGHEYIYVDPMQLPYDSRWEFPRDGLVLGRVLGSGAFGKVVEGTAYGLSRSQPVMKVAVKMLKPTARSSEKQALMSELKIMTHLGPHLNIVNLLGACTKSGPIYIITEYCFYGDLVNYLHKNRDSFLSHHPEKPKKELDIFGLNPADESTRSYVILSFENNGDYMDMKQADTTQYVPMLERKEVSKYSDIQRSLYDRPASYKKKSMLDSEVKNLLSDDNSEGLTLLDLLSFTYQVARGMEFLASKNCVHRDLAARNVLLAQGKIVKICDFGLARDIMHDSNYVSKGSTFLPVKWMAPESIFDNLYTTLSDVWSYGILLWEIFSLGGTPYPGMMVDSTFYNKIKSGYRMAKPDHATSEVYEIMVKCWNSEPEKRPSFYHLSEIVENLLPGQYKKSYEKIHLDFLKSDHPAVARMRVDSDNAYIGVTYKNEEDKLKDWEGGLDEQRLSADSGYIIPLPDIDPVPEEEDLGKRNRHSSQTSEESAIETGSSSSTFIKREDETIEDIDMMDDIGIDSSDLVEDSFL

[14] = biological target: T1, AXL (Homo sapiens, UniProt P30530); assay: Radiometric kinase assay; assay type: biochemical; conditions: read-out: Kinase inhibition (%) AXL
T1 sequence (P30530 26-894): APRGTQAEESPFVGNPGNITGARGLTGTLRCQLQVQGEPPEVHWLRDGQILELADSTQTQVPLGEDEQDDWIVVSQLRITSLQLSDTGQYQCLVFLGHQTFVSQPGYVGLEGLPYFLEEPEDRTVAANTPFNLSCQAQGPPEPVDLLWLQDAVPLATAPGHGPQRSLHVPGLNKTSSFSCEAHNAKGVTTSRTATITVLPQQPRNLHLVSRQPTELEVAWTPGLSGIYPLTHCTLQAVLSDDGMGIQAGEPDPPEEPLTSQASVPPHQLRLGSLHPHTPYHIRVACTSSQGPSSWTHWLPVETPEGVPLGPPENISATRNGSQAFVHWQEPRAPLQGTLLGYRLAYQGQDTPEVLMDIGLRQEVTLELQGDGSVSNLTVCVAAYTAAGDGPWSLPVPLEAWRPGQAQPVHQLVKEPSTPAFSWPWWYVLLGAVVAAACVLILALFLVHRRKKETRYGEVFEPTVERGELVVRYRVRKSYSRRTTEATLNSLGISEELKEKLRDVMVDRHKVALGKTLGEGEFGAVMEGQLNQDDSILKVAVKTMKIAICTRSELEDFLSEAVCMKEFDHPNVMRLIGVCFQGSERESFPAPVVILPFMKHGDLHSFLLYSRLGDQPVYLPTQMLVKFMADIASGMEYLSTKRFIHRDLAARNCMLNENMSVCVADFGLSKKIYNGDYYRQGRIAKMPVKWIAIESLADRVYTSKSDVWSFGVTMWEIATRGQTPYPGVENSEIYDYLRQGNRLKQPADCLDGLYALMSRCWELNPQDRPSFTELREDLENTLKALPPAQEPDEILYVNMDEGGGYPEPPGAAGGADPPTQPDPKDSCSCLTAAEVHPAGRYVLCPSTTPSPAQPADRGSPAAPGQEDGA

[15] = biological target: FLT1 (VEGFR1) (Homo sapiens, UniProt P17948); assay: Radiometric kinase assay; assay type: biochemical; conditions: read-out: Kinase inhibition (%) FLT1 (VEGFR1)
[16] = system: AsPC-1 cells; assay: Apoptosis by Hoechst 33,258 staining; assay type: cell-based, human; conditions: AsPC-1, 10 and 30 µM, 48 h
[17] = biological target: PDGFRB (PDGFRβ) (Homo sapiens, UniProt P09619); assay: Radiometric kinase assay; assay type: biochemical; conditions: read-out: Kinase inhibition (%) PDGFRB (PDGFRβ)
[18] = system: AsPC-1 cells; assay: Cell cycle test, RNase/PI flow cytometry; assay type: cell-based, human; conditions: AsPC-1, 3, 10, 30, 50 µM, 48 h
[19] = biological target: NTRK2 (TrkB) (Homo sapiens, UniProt Q16620); assay: Radiometric kinase assay; assay type: biochemical; conditions: read-out: Kinase inhibition (%) NTRK2 (TrkB)
[20] = system: EBC-1, AsPC-1, Mia-Paca-2, HT-29, MCF-7 cancer cells; assay: MTT antiproliferative assay, cancer cell lines summarised; assay type: cell-based, human; conditions: MTT
[21] = MTT, 72 h, mean ± S.E.M. of 3–5 experiments

| Compound | IC50 ([1]; Homo sapiens, MCF7, 72 h) [µM] | IC50 ([2]; Homo sapiens, HT-29, 72 h) [µM] | IC50 ([3]; Homo sapiens, MIA PaCa-2, 72 h) [µM] | IC50 ([4]; Homo sapiens, EBC-1, 72 h) [nM] | IC50 ([5]; Homo sapiens, ASPC1, 72 h) [µM] | IC50 ([6]; Mus musculus, NIH3T3, 72 h) [µM] | further results |
| --- | --- | --- | --- | --- | --- | --- | --- |
| COc1cc2nccc(Oc3ccc(NC(=O)C4(C(=O)Nc5ccc(F)cc5)CC4)cc3)c2cc1OC [Cabozantinib, reference compound] | 17.8 ± 2.4 | 3.7 ± 0.4 | 7.4 ± 0.6 | 60 ± 10 | 21.3 ± 2.03 |  |  |
| N.N.[Cl][Pt][Cl] [Cisplatin, reference compound] |  |  |  |  |  |  | IC50 [1, 21]: 43.1 ± 1.9 µM; IC50 [2, 21]: 43.3 ± 17.3 µM; IC50 [3, 21]: 22.1 ± 6.2 µM; IC50 [4, 21]: 24000 ± 5500 nM; IC50 [5, 21]: 5.4 ± 0.6 µM; IC50 ([6]; MTT, 72 h, non-cancer cell line, mean ± S.E.M.): 8.3 ± 1.4 µM |
| CC(C)c1ccc(Cn2cc(COc3ccc(NC4=CC(=O)c5ccccc5C4=O)cc3)nn2)cc1 [Compound 4 g, 2-((4-((1-(4-Isopropylbenzyl)−1H-1,2,3-triazol-4-yl)methoxy)phenyl)amino) naphthalene-1,4-dione] | 22.3 ± 3.8 | 4.9 ± 0.9 | 45 ± 8.2 | 2000 ± 500 | 12.8 ± 2.9 | 24.5 ± 5.2 | inhibition at 10 µM [7]: -11%; inhibition at 10 µM [8]: 6%; inhibition at 10 µM [9]: -10%; inhibition at 10 µM [10]: -2%; inhibition at 10 µM [11]: 1%; inhibition at 10 µM [12]: 9%; inhibition at 10 µM [13]: 29% |
| CC(C)(C)c1ccc(Cn2cc(COc3ccc(NC4=CC(=O)c5ccccc5C4=O)cc3)nn2)cc1 [Compound 4 h, 2-((4-((1-(4-(Tert-butyl)benzyl)−1H-1,2,3-triazol-4yl)methoxy)phenyl)amino) naphthalene-1,4-dione] | 20.3 ± 0.2 | 2.5 ± 0.7 | 31.3 ± 3.3 | 8700 ± 1300 | 16.2 ± 2 | 46.7 ± 3.2 |  |
| O=C1C=C(Nc2ccc(OCc3cn(Cc4ccc(F)cc4)nn3)cc2)C(=O)c2ccccc21 [Compound 4c, 2-((4-((1-(4-Fluorobenzyl)−1H-1,2,3-triazol-4-yl)methoxy)phenyl)amino) naphthalene-1,4-dione] | 26.9 ± 0.2 | > 100 | 61 ± 6.6 | 13700 ± 3300 | 34.8 ± 15.3 | 20.1 ± 3.3 |  |
| O=C1C=C(Nc2ccc(OCc3cn(Cc4ccc(Cl)cc4)nn3)cc2)C(=O)c2ccccc21 [Compound 4d, 2-((4-((1-(4-Chlorobenzyl)−1H-1,2,3-triazol-4-yl)methoxy)phenyl)amino) naphthalene-1,4-dione] | 15.9 ± 4.6 | 3.1 ± 0.4 | 21.3 ± 3.6 | 1900 ± 300 | 20.8 ± 6.8 | 14.4 ± 1.9 |  |
| O=C1C=C(Nc2ccc(OCc3cn(Cc4cccc(Cl)c4)nn3)cc2)C(=O)c2ccccc21 [Compound 4f, 2-((4-((1-(3-Chlorobenzyl)−1H-1,2,3-triazol-4-yl)methoxy)phenyl)amino) naphthalene-1,4-dione] | > 100 | 1.9 ± 0.4 | 42.1 ± 12.6 | 2300 ± 400 | 10.5 ± 2.6 | 29.8 ± 7.3 |  |
| Cc1ccc(Cn2cc(COc3ccc(NC4=CC(=O)c5ccccc5C4=O)cc3)nn2)cc1 [Compound 4i, 2-((4-((1-(4-Methylbenzyl)−1H-1,2,3-triazol-4-yl)methoxy)phenyl)amino) naphthalene-1,4-dione] | 13.9 ± 0.7 | 1.3 ± 0.5 | 20.6 ± 6.2 | 2500 ± 300 | 5.4 ± 0.9 | 25.5 ± 6.1 | inhibition at 10 µM [14]: 8%; inhibition at 10 µM [15]: -17%; inhibition at 10 µM [7]: 16%; inhibition at 10 µM [9]: 28%; Apoptosis induction (nuclear morphology) [16]: characteristic features of apoptosis including densely packed chromatin within the nucleus as well as nuclear fragmentation; IC50 [11]: 11.3 ± 0.477 µM; inhibition at 10 µM [11]: 51%; IC50 [12]: 1336 ± 6 nM; inhibition at 10 µM [12]: 87%; IC50 [13]: 220 ± 9 nM; inhibition at 10 µM [13]: 74%; inhibition at 10 µM [17]: 5%; Effect on cell cycle distribution (S and G2/M phases) [18]: dose-dependently increased the number of cells in the S phase and simultaneously reduced the cells in G2/M phase; inhibition at 10 µM [19]: 19% |
| O=C1C=C(Nc2ccc(OCc3cn(CCN4C(=O)c5ccccc5C4=O)nn3)cc2)C(=O)c2ccccc21 [Compound 4j, 2-(2-(4-((4-((1,4-Dioxo-1,4-dihydronaphthalen-2-yl)amino)phenoxy)methyl)−1H-1,2,3-triazol-1-yl)ethyl)isoindoline-1,3-dione] | > 100 | > 50 | > 100 | > 50000 | > 100 |  | Antiproliferative activity against cancer cell lines (in words) [20]: devoid of any antiproliferative potential against all cancer cells |
| COc1cccc2c1C(=O)c1c(O)c3c(c(O)c1C2=O)C[C@@](O)(C(=O)CO)C[C@@H]3O[C@H]1C[C@H](N)[C@H](O)[C@H](C)O1 [Doxorubicin, reference compound] | 0.137 ± 0.0063 | 0.6 ± 0.2 | 0.0881 ± 0.0526 | 500 ± 100 | 1.73 ± 0.2 | 0.013 ± 0.0021 |  |
